# What was measured:
# [1] = Microsomal stability in rat liver microsomes assessed as half life; type: ADME, Microsome
# [2] = molecular target: T1, Nuclear receptor ROR-gamma (Homo sapiens, UniProt P51449); assay: Agonist activity at N-terminal GST tagged human RORgamma LBD using fluorescein-D22 as coactivator incubated for 60 mins by Lanthascreen TR-FRET assay
# T1 sequence (P51449 whole entry): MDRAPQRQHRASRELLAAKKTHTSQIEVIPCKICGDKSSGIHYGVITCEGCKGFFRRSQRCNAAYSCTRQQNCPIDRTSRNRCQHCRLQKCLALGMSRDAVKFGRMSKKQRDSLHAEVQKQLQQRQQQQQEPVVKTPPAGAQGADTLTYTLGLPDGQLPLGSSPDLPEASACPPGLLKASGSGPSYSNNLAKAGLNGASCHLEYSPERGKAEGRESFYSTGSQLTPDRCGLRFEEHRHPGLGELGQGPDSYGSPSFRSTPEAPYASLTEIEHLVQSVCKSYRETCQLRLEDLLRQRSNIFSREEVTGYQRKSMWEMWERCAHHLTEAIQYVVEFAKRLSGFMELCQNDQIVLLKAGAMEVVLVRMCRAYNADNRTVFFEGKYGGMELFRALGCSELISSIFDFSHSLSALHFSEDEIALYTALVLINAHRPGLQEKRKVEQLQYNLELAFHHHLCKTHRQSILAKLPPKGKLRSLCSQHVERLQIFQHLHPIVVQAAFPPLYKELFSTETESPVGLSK
# [3] = Microsomal stability in human liver microsomes assessed as half life; type: ADME, Microsome
# [4] = molecular target: T2, Nuclear receptor ROR-gamma (Homo sapiens) (UniProt P51449); assay: Partial agonist activity at human RORgamma in cytostim stimulated human PBMC cells assessed as increase in IL-17 production by measuring maximal efficacy preincubated with cytostim for 72 hrs by ELISA relative to control; type: cell-based; conditions: filed as partial agonist
# T2 sequence (whole entry): T1 sequence (P51449 whole entry)
# [5] = molecular target: T1, Nuclear receptor ROR-gamma; assay: Partial agonist activity at human RORgamma in cytostim stimulated human PBMC cells assessed as […] in differentiation of TH17 cells by measuring IL-17 production preincubated with cytostim for 72 hrs by ELISA; type: cell-based
# [6] = molecular target: T1, Nuclear receptor ROR-gamma; assay: Agonist activity at human RORgamma in cytostim stimulated human PBMC cells assessed as increase in differentiation of TH17 cells by measuring IL-17 production preincubated with cytostim for 72 hrs by ELISA; type: cell-based
# [7] = Volume of distribution in mouse at 2 mg/kg, po; type: ADME, organism-based; conditions: in vivo
# [8] = Oral bioavailability in mouse; type: ADME, organism-based; conditions: in vivo
# [9] = Volume of distribution in mouse at 1 mg/kg, iv; type: ADME, organism-based; conditions: in vivo, read-out: Vd
# [10] = Cmax in dog at 2 mg/kg, po; type: ADME, organism-based, Canis lupus familiaris; set-up: dose 2 mg/kg, route po; conditions: in vivo
# [11] = Clearance in dog at 0.5 mg/kg, iv; type: ADME, organism-based, Canis lupus familiaris; conditions: in vivo
# [12] = AUC (0 to t) in rat at 2 mg/kg, po; type: ADME, organism-based; set-up: dose 2 mg/kg, route po; conditions: in vivo
# [13] = Drug metabolism in dog plasma assessed as amide hydrolysis metabolite formation at 1 mg/kg, iv; type: ADME, organism-based, Canis lupus familiaris; conditions: in vivo
# [14] = Volume of distribution in rat at 1 mg/kg, iv; type: ADME, organism-based; conditions: in vivo
# [15] = Half life in rat at 1 mg/kg, iv; type: ADME, organism-based; conditions: in vivo
# [16] = AUC (0 to t) in dog at 2 mg/kg, po; type: ADME, organism-based, Canis lupus familiaris; set-up: dose 2 mg/kg, route po; conditions: in vivo
# [17] = AUC (0 to t) in dog at 0.5 mg/kg, iv; type: ADME, organism-based, Canis lupus familiaris; set-up: dose 0.5 mg/kg, route iv; conditions: in vivo
# [18] = Drug metabolism in rat plasma assessed as amide hydrolysis metabolite formation at 1 mg/kg, iv; type: ADME, organism-based; conditions: in vivo
# [19] = Half life in mouse at 1 mg/kg, iv; type: ADME, organism-based; conditions: in vivo
# [20] = Drug metabolism in rat liver microsomes assessed as amide hydrolysis metabolite formation at 1 mg/kg, iv; type: ADME, Microsome
# [21] = AUC (0 to t) in mouse at 1 mg/kg, iv; type: ADME, organism-based; set-up: dose 1 mg/kg, route iv; conditions: in vivo
# [22] = AUC (0 to t) in rat at 1 mg/kg, iv; type: ADME, organism-based; set-up: dose 1 mg/kg, route iv; conditions: in vivo
# [23] = Oral bioavailability in rat; type: ADME, organism-based; conditions: in vivo
# [24] = Drug metabolism in dog liver microsomes assessed as amide hydrolysis metabolite formation at 1 mg/kg, iv; type: ADME, Canis lupus familiaris, Microsome
# [25] = Half life in dog at 0.5 mg/kg, iv; type: ADME, organism-based, Canis lupus familiaris; conditions: in vivo
# [26] = Half life in mouse at 2 mg/kg, po; type: ADME, organism-based; conditions: in vivo
# [27] = Cmax in rat at 2 mg/kg, po; type: ADME, organism-based; set-up: dose 2 mg/kg, route po; conditions: in vivo
# [28] = Oral bioavailability in dog; type: ADME, organism-based, Canis lupus familiaris; conditions: in vivo
# [29] = Volume of distribution in dog at 2 mg/kg, po; type: ADME, organism-based, Canis lupus familiaris; conditions: in vivo
# [30] = AUC (0 to t) in mouse at 2 mg/kg, po; type: ADME, organism-based; set-up: dose 2 mg/kg, route po; conditions: in vivo
# [31] = Half life in dog at 2 mg/kg, po; type: ADME, organism-based, Canis lupus familiaris; conditions: in vivo
# [32] = Volume of distribution in dog at 0.5 mg/kg, iv; type: ADME, organism-based, Canis lupus familiaris; conditions: in vivo
# [33] = Clearance in rat at 1 mg/kg, iv; type: ADME, organism-based; conditions: in vivo
# [34] = Cmax in mouse at 2 mg/kg, po; type: ADME, organism-based; set-up: dose 2 mg/kg, route po; conditions: in vivo
# [35] = Clearance in mouse at 1 mg/kg, iv; type: ADME, organism-based; conditions: in vivo
# [36] = molecular target: T1, Nuclear receptor ROR-gamma; assay: Antagonist activity at N-terminal GST tagged human RORgamma LBD using fluorescein-D22 as coactivator incubated for 60 mins by Lanthascreen TR-FRET assay
# [37] = molecular target: T1, Nuclear receptor ROR-gamma; assay: Antagonist activity at human RORgamma in cytostim stimulated human PBMC cells assessed as decrease in differentiation of TH17 cells by measuring IL-17 production preincubated with cytostim for 72 hrs by ELISA; type: cell-based
# [38] = molecular target: T2, Nuclear receptor ROR-gamma (Homo sapiens); assay: Inverse agonist activity at human RORgamma in cytostim stimulated human PBMC cells assessed as […] in IL-17 production by measuring maximal efficacy preincubated with cytostim for 72 hrs by ELISA relative to control; type: cell-based; conditions: filed as inverse agonist
smiles,measurement,setting,value
CCc1ccccc1Cc1cc2cc(C(=O)NCc3ccc(S(=O)(=O)CC)cc3)ccc2n1C(C)C,half-life,[1],0.2 h
same,EC50,[2],25 nM
same,half-life,[3],0.217 h
same,Emax,[4],79%
same,EC50,[5],2 nM
CCS(=O)(=O)c1ccc(CNC(=O)c2ccc3c(c2)cc(Cc2ccc(Cl)cc2C(F)(F)F)n3C(C)C)cc1,EC50,[6],8 nM
same,half-life,[1],1.93 h
same,EC50,[2],11 nM
same,half-life,[3],3.03 h
CCS(=O)(=O)c1ccc(CNC(=O)c2ccc3c(c2)cc(Cc2ccc(Cl)cc2C(F)(F)F)n3CCF)cc1,Vd,[7],0.569 L/kg
same,EC50,[6],2 nM
same,bioavailability,[8],47.3%
same,Vd,[9],0.193 L/kg
same,Cmax,[10],55.9 ng/mL
same,clearance,[11],27.2 mL/min/kg
same,AUC(0-t),[12],3.73 ng·h/mL
same,Drug metabolism,[13],Metabolite_Detected
same,Vd,[14],4.48 L/kg
same,half-life,[15],0.86 h
same,half-life,[1],2.1 h
same,AUC(0-t),[16],103 ng·h/mL
same,AUC(0-t),[17],309 ng·h/mL
same,EC50,[2],2 nM
same,Drug metabolism,[18],Metabolite_Detected
same,half-life,[3],2.88 h
same,half-life,[19],2.67 h
same,Drug metabolism,[20],Metabolite_Detected
same,AUC(0-t),[21],20000 ng·h/mL
same,AUC(0-t),[22],277 ng·h/mL
same,bioavailability,[23],0.673%
same,Drug metabolism,[24],Metabolite_Detected
same,half-life,[25],0.876 h
same,half-life,[26],3.72 h
same,Cmax,[27],6.4 ng/mL
same,bioavailability,[28],8.33%
same,Vd,[29],73.7 L/kg
same,AUC(0-t),[30],18900 ng·h/mL
same,half-life,[31],2.14 h
same,Vd,[32],2.05 L/kg
same,clearance,[33],60.2 mL/min/kg
same,Cmax,[34],3270 ng/mL
same,clearance,[35],0.834 mL/min/kg
CCS(=O)(=O)c1ccc(CNC(=O)c2ccc3c(c2)cc(Cc2ccccc2)n3C(C)C)cc1,EC50,[36],683 nM
CCS(=O)(=O)c1ccc(CNC(=O)c2ccc3c(c2)cc(Cc2ccc(Cl)cc2C(F)(F)F)n3C2CC2)cc1,half-life,[1],1.7 h
same,half-life,[3],2.32 h
CCS(=O)(=O)c1ccc(CNC(=O)c2ccc3c(c2)cc(Cc2ccc(C(F)(F)F)cc2)n3C(C)C)cc1,EC50,[37],109 nM
same,EC50,[36],150 nM
same,Emax,[38],109%
CCS(=O)(=O)c1ccc(CNC(=O)c2ccc3c(c2)cc(Cc2cccc(C(F)(F)F)c2)n3C(C)C)cc1,EC50,[37],19 nM
same,EC50,[36],10 nM
same,half-life,[1],0.317 h
same,half-life,[3],0.333 h
same,Emax,[38],93%
